Experimental data: US20230100193A1, “NOVEL PHARMACEUTICAL FORMULATIONS CONTAINING INDIRUBIN AND DERIVATIVES THEREOF AND METHODS OF MAKING AND USING THE SAME” (Cytodigm, Inc., priority 2017, published 2023)

Assay: Dissolution measurement after 30 minutes in 2% Tween 20 in PBS, HPLC of supernatant
Type: physicochemical
Conditions: after stirring for 30 minutes, centrifuged 14,000 rpm 15 min, HPLC 292 nm, 6-BIA 1.10 mg in 110 mL, nanoparticles approx. 1.32 mg/ml 6-BIA
Description: As a control, dissolution of 6-BIA without polymer was first tested. 1.10 mg of 6-BIA was added to 110 mL of 2% Tween 20 in PBS. After stirring for 30 minutes, 1 mL of the resulting suspension was immediately collected to an Eppendorf tube. The Eppendorf tube was centrifuged at 14,000 rpm for 15 min.
Encapsulated 6-BIA nanoparticles obtained in Example 4 were re-suspended in 2% Tween 20 in PBS to form a nanoparticle suspension containing approximately 1.32 mg/ml of 6-BIA in the nanoparticles. After stirring for 30 minutes, 1 mL of the resulting suspension was immediately collected to an Eppendorf tube. The Eppendorf tube was centrifuged at 14,000 rpm for 15 min.

## O=C1Nc2cc(Br)ccc2/C1=C1/Nc2ccccc2/C1=N\O [Example 6-BIA, 6-bromoindirubin-3′-oxime]
  6-BIA concentration in supernatant (30-minute dissolution): 3.89 µg/mL
